Test results as given in patent publication US12144864B2, “Tubulysins and protein-tubulysin conjugates” (Regeneron Pharmaceuticals, Inc., priority 2018, dated 2024).
pIC50: −log10 of the molar value. Like-named read-outs stand apart in the source and are kept apart here.

How the values were obtained:
C4-2 cells = experiment: Cell-based killing assay of payloads (CellTiter-Glo), C4-2 cells; parameters: species or system human; settings: 5-day incubation; for pIC50: Homo sapiens, C4-2, 120 h, average ± SD where replicates; for C4-2 % Kill: at maximum concentration tested (100 − % viable cells)
Procedure: (§1) To test the ability of the disclosed tubulysin payloads to kill human cell lines, an in vitro cytotoxicity assay was performed. In vitro cytotoxicity of the disclosed payloads, as well as reference compounds, were evaluated using the CellTiter-Glo Assay Kit (Promega, Cat #G7573), in which the quantity of ATP present is used to determine the number of viable cells in culture. For the assay, C4-2, HEK293, or T47D cells were seeded at 4000 cells/well on Nunclon white 96-well plates in complete growth medium (DME high glucose:Ham's F12 at 4:1, 10% FBS, 100 units/ml Penicillin, 100 ug/ml streptomycin, 53 ug/ml glutatmine, 10 ug/ml insulin, 220 ng/ml biotin, 12.5 pg/ml T3, 12.5 ug/ml Adenine, 4 ug/ml transferrin for C42 cells; DME high glucose, 10% FBS, 100 units/ml Penicillin, 100 ug/ml streptomycin, 53 ug/ml glutatmine for HEK293; RPMI, 10% FBS, 100 units/ml Penicillin, 100 ug/ml streptomycin, 53 ug/ml glutatmine, 10 ug/ml insulin, 10 mM HEPEs, 200 nM Sodium Pyruvate for T47D cells) and grown overnight at 37° C. in 5% CO2. For cell viability curves, 1:3 serially diluted payloads were added to the cells at final concentrations ranging from 100 nM to […], including a no treatment control group, and were then incubated for 5 days. After the 5-day incubation, cells were incubated at room temperature with 100 μL of CellTiter-Glo reagents for 10 minutes. Relative luminescence units (RLU) were determined on a Victor plate reader (PerkinElmer). The IC50 values were determined from a four-parameter logistic equation over a 10-point response curve (GraphPad Prism). All IC50 values are expressed in molar (M) concentration. The percent cell killing (% kill) at the maximum concentration tested was estimated from the following formula (100−% viable cells). Averages±standard deviation (SD) are included where replicate experiments were performed.

HCT-15 cells = experiment: Cytotoxicity in panel of MDR cell lines, HCT-15 (72 h and 144 h); type: cell-based, human; settings: for pIC50: Homo sapiens
Procedure: as §1
(§2) To further test the ability of the disclosed tubulysin payloads, a cytotoxicity assay was performed using a panel of multidrug resistant (MDR) cell lines. In vitro cytotoxicity of the disclosed payloads as well as reference compounds were similarly evaluated as described above except using HCT-15 cells, a colorectal carcinoma cell line; H69AR, a doxorubicin resistant MDR derivative of the small cell lung cancer carcinoma cell line NCI-H69; MES-SA/MX2, a mitoxantrone resistant MDR derivative of the uterine sarcoma cell line MES-SA; and HL60/MX2, a mitoxantrone resistant MDR derivative of the acute promyelocytic leukemia cell line HL60. In these assays, cytotoxicity was evaluated in normal growth media (RPMI, 10% FBS, 100 units/ml Penicillin, 100 ug/ml streptomycin, and 53 ug/ml glutatmine for HCT-15 and HL60/MX2; RPMI, 20% FBS, 100 units/ml Penicillin, 100 ug/ml streptomycin, and 53 ug/ml glutatmine for H69-AR; Waymouths's:McCoy's (1:1), 10% FBS, 100 units/ml Penicillin, 100 ug/ml streptomycin, and 53 ug/ml glutatmine for MES-SA/MX2) with 1000 cells per well following 72 h and 144 h incubation with payloads.

HL60/MX2 cells = experiment: Cytotoxicity in panel of MDR cell lines, HL60/MX2 (72 h and 144 h); type: cell-based, human; settings: for pIC50: Homo sapiens
Procedure: as §1, §2

H69AR cells = experiment: Cytotoxicity in panel of MDR cell lines, H69AR (72 h and 144 h); type: cell-based, human; settings: for pIC50: Homo sapiens
Procedure: as §1, §2

HCT15 cells = experiment: cells; type: cell-based, human; settings: HCT15 cells; for HCT-15 + verapamil % Kill / HCT-15 % Kill: maximum % cell killing
Procedure: as §1
In vitro cytotoxicity of the disclosed payloads as well as reference compounds were evaluated similarly as described above except using 1000 HCT15 cells, a colorectal carcinoma cell line, in growth medium (RPMI, 10% FBS, 100 units/ml Penicillin, 100 ug/ml streptomycin, 53 ug/ml glutatmine) with or without 5 ug/mL of Verapamil.

MES-SA/MX2 cells = experiment: Cytotoxicity in panel of MDR cell lines, MES-SA/MX2 (72 h and 144 h); type: cell-based, human; settings: for pIC50: Homo sapiens
Procedure: as §1, §2

[1] = 72 h incubation, read-out: HCT-15 IC50 72 h
[2] = 144 h incubation, read-out: HCT-15 IC50 144 h
[3] = 72 h incubation, read-out: HL60/MX2 IC50 72 h
[4] = 144 h incubation, read-out: HL60/MX2 IC50 144 h
[5] = 72 h incubation, read-out: H69AR IC50 72 h
[6] = 144 h incubation, read-out: H69AR IC50 144 h
[7] = with 5 ug/mL Verapamil, read-out: HCT-15 + verapamil IC50
[8] = Homo sapiens, HCT-15, without Verapamil, read-out: HCT-15 IC50
[9] = 72 h incubation, read-out: MES-SA/MX2 IC50 72 h
[10] = 144 h incubation, read-out: MES-SA/MX2 IC50 144 h

Compound | pIC50 (C4-2 cells) | C4-2 % Kill (C4-2 cells) [%] | HCT-15 % Kill 72 h (HCT-15 cells; 72 h incubation) [%] | HCT-15 % Kill 144 h (HCT-15 cells; 144 h incubation) [%] | pIC50 (HCT-15 cells; [1]) | pIC50 (HCT-15 cells; [2]) | HL60/MX2 % Kill 72 h (HL60/MX2 cells; 72 h incubation) [%] | HL60/MX2 % Kill 144 h (HL60/MX2 cells; 144 h incubation) [%] | pIC50 (HL60/MX2 cells; [3]) | pIC50 (HL60/MX2 cells; [4]) | H69AR % Kill 72 h (H69AR cells; 72 h incubation) [%] | H69AR % Kill 144 h (H69AR cells; 144 h incubation) [%] | pIC50 (H69AR cells; [5]) | pIC50 (H69AR cells; [6]) | HCT-15 + verapamil % Kill (HCT15 cells; with 5 ug/mL Verapamil) [%] | pIC50 (HCT15 cells; [7]) | HCT-15 % Kill (HCT15 cells; without Verapamil) [%] | pIC50 (HCT15 cells; [8]) | MES-SA/MX2 % Kill 72 h (MES-SA/MX2 cells; 72 h incubation) [%] | MES-SA/MX2 % Kill 144 h (MES-SA/MX2 cells; 144 h incubation) [%] | also measured
C#CCCCON(C(=O)[C@@H](NC(=O)[C@H]1CCCCN1C)[C@@H](C)CC)[C@H](C[C@@H](OC(=O)NCC)c1nc(C(=O)N[C@@H](Cc2ccc(NC(C)=O)cc2)CC(C)(C)C(=O)O)cs1)C(C)C [VIg, (4S)-5-(4-Acetamidophenyl)-4-({2-[(1R,3R)-1-[(ethylcarbamoyl)oxy]-4-methyl-3-[(2S,3S)-3-methyl-2-{[(2R)-1-methylpiperidin-2-yl]formamido}-N-(pent-4-yn-1-yloxy)pentanamido]pentyl]-1,3-thiazol-4-yl}formamido)-2,2-dimethylpentanoic acid] | < 7.00 | 10.9 | – | – | – | – | – | – | – | – | – | – | – | – | – | – | – | – | – | – | –
[2H]c1cc(C[C@@H](CC(C)(C)C(=O)O)NC(=O)c2csc([C@@H](C[C@H](C(C)C)N(CCCCC#C)C(=O)[C@@H](NC(=O)[C@H]3CCCCN3C)[C@@H](C)CC)OC(C)=O)n2)cc([2H])c1N [IVr, (S)-4-(2-((1R,3R)-1-Acetoxy-3-((2S,3S)—N-(hex-5-yn-1-yl)-3-methyl-2-((R)-1-methylpiperidine-2-carboxamido)pentanamido)-4-methylpentyl)thiazole-4-carboxamido)-5-(4-aminophenyl-3,5-d2)-2,2-dimethylpentanoic acid] | – | – | 98 | 99.7 | 10.40 | 10.21 | 98.7 | 100 | > 10.82 | > 10.82 | 96.7 | 99 | 9.86 | 9.68 | 99 | 10.20 | 99.1 | 10.05 | 99.1 | 100 | pIC50 (MES-SA/MX2 cells; [9]): 9.82; pIC50 (MES-SA/MX2 cells; [10]): 9.75
CCCCCCN(C(=O)[C@@H](NC(=O)[C@H]1CCCCN1C)[C@@H](C)CC)[C@H](C[C@@H](OC(C)=O)c1nc(C(=O)N[C@@H](Cc2ccc(F)cc2)CC(C)(C)C(=O)O)cs1)C(C)C [VIII, (4S)-4-({2-[(1R,3R)-1-(Acetyloxy)-3-[(2S,3S)—N-hexyl-3-methyl-2-{[(2R)-1-methylpiperidin-2-yl]formamido}pentanamido]-4-methylpentyl]-1,3-thiazol-4-yl}formamido)-5-(4-fluorophenyl)-2,2-dimethylpentanoic acid] | – | – | – | – | – | – | – | – | – | – | – | – | – | – | – | – | – | – | – | – | pIC50 (HCT15 cells; with 5 ug/mL Verapamil, read-out: HCT-15 + verapamil IC50 (value in brackets)): 9.97; pIC50 (HCT15 cells; Homo sapiens, HCT-15, without Verapamil, read-out: HCT-15 IC50 (value in brackets)): 9.53
CCCCCCN(C(=O)[C@@H](NC(=O)[C@H]1CCCCN1C)[C@@H](C)CC)[C@H](C[C@@H](OC(C)=O)c1nc(C(=O)N[C@@H](Cc2ccc(N)cc2)CC(C)(C)C(=O)O)cs1)C(C)C [IVq, (S)-4-(2-((1R,3R)-1-Acetoxy-3-((2S,3S)—N-hexyl-3-methyl-2-((R)-1-methylpiperidine-2-carboxamido)pentanamido)-4-methylpentyl)thiazole-4-carboxamido)-5-(4-aminophenyl)-2,2-dimethylpentanoic acid] | – | – | 98 | 99.8 | > 10.82 | 10.56 | 98.6 | 100 | > 10.82 | > 10.82 | 96.9 | 99.5 | 10.19 | 9.89 | 98.6 ± 0.7 | 10.65 | 98.4 ± 0.8 | 10.37 | 99.4 | 100 | pIC50 (MES-SA/MX2 cells; [9]): 10.23; pIC50 (MES-SA/MX2 cells; [10]): 9.98
CCCCCCN(C(=O)[C@@H](NC(=O)[C@H]1CCCCN1C)[C@@H](C)CC)[C@H](C[C@@H](OC(C)=O)c1nc(C(=O)N[C@@H](Cc2ccc(N)cc2)CC(C)(C)C(=O)NN)cs1)C(C)C [IVy, (1R,3R)-1-(4-((S)-1-(4-Aminophenyl)-5-hydrazinyl-4,4-dimethyl-5-oxopentan-2-ylcarbamoyl)thiazol-2-yl)-3-((2S,3S)—N-hexyl-3-methyl-2-((R)-1-methylpiperidine-2-carboxamido)pentanamido)-4-methylpentyl acetate] | 8.74 | 94.4 | – | – | – | – | – | – | – | – | – | – | – | – | – | – | – | – | – | – | –
CC[C@H](C)[C@H](NC(=O)[C@H]1CCCCN1C)C(=O)N(CCCCc1cn(CC(=O)O)nn1)[C@H](C[C@@H](OC(C)=O)c1nc(C(=O)N[C@@H](Cc2ccc(N)cc2)CC(C)(C)C(=O)O)cs1)C(C)C [IVm, (S)-4-(2-((1R,3R)-1-acetoxy-3-((2S,3S)—N-(4-(1-(carboxymethyl)-1H-1,2,3-triazol-4-yl)butyl)-3-methyl-2-((R)-1-methylpiperidine-2-carboxamido)pentanamido)-4-methylpentyl)thiazole-4-carboxamido)-5-(4-aminophenyl)-2,2-dimethylpentanoic acid] | < 7.00 | 8.9 | – | – | – | – | – | – | – | – | – | – | – | – | – | – | – | – | – | – | –
C#CCCCCN(C(=O)[C@@H](NC(=O)[C@H]1CCCCN1C)[C@@H](C)CC)[C@H](C[C@@H](OC(C)=O)c1nc(C(=O)N[C@@H](Cc2ccccc2)CC(C)(C)C(=O)O)cs1)C(C)C [IVb, (4S)-4-({2-[(1R,3R)-1-(Acetyloxy)-3-[(2S,3S)—N-(hex-5-yn-1-yl)-3-methyl-2-{[(2R)-1-methylpiperidin-2-yl]formamido}pentanamido]-4-methylpentyl]-1,3-thiazol-4-yl}formamido)-2,2-dimethyl-5-phenylpentanoic acid] | – | – | – | – | – | – | – | – | – | – | – | – | – | – | 98.1 | 9.99 | 98 | 9.82 | – | – | –
CCCCCCN(C(=O)[C@@H](NC(=O)[C@H]1CCCCN1C)[C@@H](C)CC)[C@H](C[C@@H](OC(C)=O)c1nc(C(=O)NC(Cc2ccc(N)c(O)c2)CC(C)(C)C(=O)O)cs1)C(C)C (stereo partly drawn) [IVx, 4-(2-((1R,3R)-1-Acetoxy-3-((2S,3S)—N-hexyl-3-methyl-2-((R)-1-methylpiperidine-2-carboxamido)pentanamido)-4-methylpentyl)thiazole-4-carboxamido)-5-(4-amino-3-hydroxyphenyl)-2,2-dimethylpentanoic acid] | – | – | 84.4 | 91 | 7.46 | 7.07 | 96.9 | 100 | 9.02 | 9.11 | 48.7 | 38 | < 7.00 | < 7.00 | – | – | – | – | 62.1 | 33.6 | pIC50 (MES-SA/MX2 cells; [9]): < 7.00; pIC50 (MES-SA/MX2 cells; [10]): < 7.00
